Laboratory results taken from ChEMBL document CHEMBL1201862, “PubChem BioAssay data set” (2004).
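Protocol summary: plate cells (96-well), add compound at 5 concentrations, incubate 48 h, interpolate endpoints linearly. GI50 = concentration required for 50% inhibition of growth.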 The source made the active and inactive calls. Cut-off read from the data, not from the text of the source: active = GI50 up to about 1.1 µM and inactive = higher.

Tests used:
Test in all cases: NCI anticancer screen, dose series, 48 h
[1] = system: OVCAR-5
[2] = system: HOP-18
[3] = system: SK-OV-3
[4] = system: Malme-3M
[5] = system: RPMI-8226
[6] = system: UACC-257
[7] = system: RXF 631
[8] = system: COLO 205
[9] = system: SF-295
[10] = system: 786-0
[11] = system: OVCAR-3
[12] = system: NCI-H460
[13] = system: SNB-78
[14] = system: HOP-62
[15] = system: HT-29
[16] = system: M14
[17] = system: LOX IMVI
[18] = system: RXF 393
[19] = system: NCI-H23
[20] = system: U-251
[21] = system: HCC 2998
[22] = system: DMS-114
[23] = system: SK-MEL-28
[24] = system: HOP-92
[25] = system: DLD-1
[26] = system: LXFL 529
[27] = system: NCI-H522
[28] = system: UO-31
[29] = system: SK-MEL-2
[30] = system: TK-10
[31] = system: SF-268
[32] = system: NCI-H226
[33] = system: M19-MEL
[34] = system: OVCAR-4
[35] = system: SNB-75
[36] = system: SW-620
[37] = system: OVCAR-8
[38] = system: HCT-116
[39] = system: SR
[40] = system: CCRF-CEM
[41] = system: SF-539
[42] = system: A549
[43] = system: HL-60
[44] = system: KM12
[45] = system: A498
[46] = system: KM-20L2
[47] = system: SK-MEL-5
[48] = system: SN12C
[49] = system: SNB-19
[50] = system: IGROV-1
[51] = system: ACHN
[52] = system: CAKI-1
[53] = system: K562
[54] = system: MOLT-4
[55] = system: DMS-273
[56] = system: HCT-15
[57] = system: UACC-62
[58] = system: EKVX
[59] = system: XF498

Measured: GI50

Oc1ccc2ccccc2c1/N=N/c1ccsc1
76.7 µM: [56]
inactive: [1] > 100 µM | [2] > 100 µM | [3] > 100 µM | [4] > 100 µM | [5] > 100 µM | [6] > 100 µM | [7] 45.5 µM | [8] > 100 µM | [9] > 100 µM | [10] > 100 µM | [11] > 100 µM | [12] > 100 µM | [13] > 100 µM | [14] > 100 µM | [15] 66.8 µM | [16] > 100 µM | [17] > 100 µM | [18] 53.3 µM | [19] > 100 µM | [20] > 100 µM | [21] > 100 µM | [22] > 100 µM | [23] > 100 µM | [24] > 100 µM | [25] > 100 µM | [26] > 100 µM | [27] > 100 µM | [28] > 100 µM | [29] > 100 µM | [30] > 100 µM | [31] > 100 µM | [32] > 100 µM | [33] > 100 µM | [34] > 100 µM | [35] > 100 µM | [36] > 100 µM | [37] > 100 µM | [38] 42.7 µM | [39] > 100 µM | [40] 83.8 µM | [41] > 100 µM | [42] > 100 µM | [43] 73.8 µM | [44] 24.9 µM | [45] > 100 µM | [46] > 100 µM | [47] > 100 µM | [48] > 100 µM | [49] > 100 µM | [50] > 100 µM | [51] > 100 µM | [52] > 100 µM | [53] > 100 µM | [54] > 100 µM | [55] > 100 µM | [57] > 100 µM

CC(C)N(CCn1c2c3ccccc3ccc2c2oc(=O)c3ccccc3c21)C(C)C
> 100 µM: [56]
inactive: [1] > 100 µM | [2] 32.7 µM | [3] > 100 µM | [4] > 100 µM | [5] > 100 µM | [6] > 54.8 µM | [7] > 100 µM | [8] > 100 µM | [9] > 52.2 µM | [10] 50.4 µM | [11] > 100 µM | [12] > 100 µM | [13] 98.9 µM | [14] > 23.1 µM | [15] > 100 µM | [16] > 100 µM | [17] > 100 µM | [18] > 100 µM | [19] > 100 µM | [20] > 86.9 µM | [22] > 100 µM | [23] > 100 µM | [58] > 100 µM | [24] > 54.3 µM | [25] > 100 µM | [26] > 100 µM | [27] > 100 µM | [28] > 100 µM | [29] > 100 µM | [30] > 100 µM | [31] > 69.7 µM | [32] > 100 µM | [59] 75.7 µM | [33] > 100 µM | [34] > 100 µM | [35] 25.2 µM | [36] > 100 µM | [37] > 48.6 µM | [38] > 100 µM | [39] > 100 µM | [40] > 100 µM | [41] > 43.3 µM | [42] > 100 µM | [43] > 100 µM | [44] > 100 µM | [45] > 100 µM | [46] > 100 µM | [48] > 100 µM | [49] 65.8 µM | [50] > 100 µM | [51] > 100 µM | [52] > 100 µM | [53] > 100 µM | [54] > 100 µM | [57] > 100 µM

Nc1nc(N)c2nc(-c3ccco3)cnc2n1
inactive: [1] > 100 µM | [2] 27.6 µM | [3] 76.9 µM | [4] 46.5 µM | [5] > 100 µM | [6] 92.7 µM | [7] 36 µM | [8] 65.6 µM | [9] 60.3 µM | [10] 27.1 µM | [11] 56.9 µM | [12] 35.3 µM | [13] > 100 µM | [14] 35.6 µM | [15] 76.7 µM | [16] 50 µM | [17] 30.9 µM | [18] 26.2 µM | [19] 75 µM | [20] 34.1 µM | [21] > 100 µM | [22] 38.8 µM | [23] 92 µM | [58] 18.3 µM | [24] 40 µM | [25] > 100 µM | [26] 64.1 µM | [27] 50.2 µM | [28] 38.5 µM | [30] 88.1 µM | [31] > 100 µM | [32] > 100 µM | [59] > 100 µM | [33] > 100 µM | [35] 28.4 µM | [37] > 100 µM | [38] 34.4 µM | [39] 39.9 µM | [40] 43.1 µM | [41] 38.2 µM | [42] 34.5 µM | [43] 28.3 µM | [44] 93.5 µM | [45] 42.2 µM | [46] 69.2 µM | [47] 52.5 µM | [48] 85.5 µM | [49] > 100 µM | [50] 43.1 µM | [51] 59.4 µM | [52] 25 µM | [53] 33.7 µM | [54] 44.5 µM | [57] 22.4 µM
> 100 µM: [56]

COC(=O)[C@H]1N[C@@H](C(=O)OC)C23CCC[C@H]2CC[C@]1(C(OC)OC)C3
inactive: [1] > 100 µM | [2] > 100 µM | [3] > 100 µM | [4] > 100 µM | [5] > 100 µM | [6] > 100 µM | [8] 87.7 µM | [9] > 100 µM | [10] 81.1 µM | [12] > 100 µM | [13] > 100 µM | [14] > 100 µM | [15] > 100 µM | [16] > 100 µM | [17] > 100 µM | [19] > 100 µM | [20] > 100 µM | [21] > 100 µM | [22] > 100 µM | [23] > 100 µM | [58] > 100 µM | [24] > 100 µM | [25] > 100 µM | [26] > 100 µM | [27] > 100 µM | [28] > 100 µM | [29] > 100 µM | [30] > 100 µM | [31] > 100 µM | [32] > 100 µM | [59] > 100 µM | [33] > 100 µM | [34] > 100 µM | [35] > 100 µM | [36] 56.2 µM | [37] > 100 µM | [38] > 100 µM | [40] > 100 µM | [41] > 100 µM | [42] > 100 µM | [43] > 100 µM | [44] > 100 µM | [45] > 100 µM | [46] > 100 µM | [47] > 100 µM | [48] > 100 µM | [49] > 100 µM | [50] > 100 µM | [51] > 100 µM | [52] > 100 µM | [53] 73.6 µM | [54] > 100 µM | [55] > 100 µM | [57] > 100 µM
> 100 µM: [56]

COc1cc(Cl)c2c3c(c(C(=O)c4ccccc4)oc13)CCC2
> 100 µM: [56]
active: [24] < 0.01 µM
inactive: [2] > 100 µM | [3] > 100 µM | [5] > 100 µM | [6] > 100 µM | [8] > 100 µM | [9] > 100 µM | [10] > 100 µM | [11] > 100 µM | [12] > 100 µM | [13] > 100 µM | [14] > 100 µM | [15] > 100 µM | [16] > 100 µM | [17] > 100 µM | [18] 62.5 µM | [19] > 100 µM | [20] > 100 µM | [21] > 100 µM | [22] > 100 µM | [23] > 100 µM | [58] > 100 µM | [25] > 100 µM | [26] > 100 µM | [30] > 100 µM | [59] > 100 µM | [33] > 100 µM | [34] > 100 µM | [35] > 100 µM | [36] > 100 µM | [37] > 100 µM | [38] > 100 µM | [40] > 100 µM | [41] > 100 µM | [42] > 100 µM | [43] 53.6 µM | [45] > 100 µM | [46] > 100 µM | [47] > 100 µM | [48] > 100 µM | [49] > 100 µM | [50] > 100 µM | [51] > 100 µM | [52] > 100 µM | [53] 41.7 µM | [54] > 100 µM | [55] 69.7 µM | [57] > 100 µM
